Measurements reported in ChEMBL document CHEMBL2203245 (Bioorg Med Chem Lett, 2012).

Columns and labels:
Mu-type opioid receptor [1] = biological target: T1, Mu-type opioid receptor (Homo sapiens, UniProt P35372); assay: Antagonist activity at human mu opioid receptor expressed in CHO cells assessed as inhibition of DAMGO-induced [35S]GTPgammaS binding after 60 mins by scintillation counting relative to untreated-control; type: functional, cell-based
[2] = biological target: T2, Delta-type opioid receptor (Homo sapiens, UniProt P41143); assay: Displacement of [3H]Naltrindole from human delta opioid receptor expressed in CHO cells after 3 hrs by scintillation counting; type: cell-based
T2 sequence (P41143 whole entry): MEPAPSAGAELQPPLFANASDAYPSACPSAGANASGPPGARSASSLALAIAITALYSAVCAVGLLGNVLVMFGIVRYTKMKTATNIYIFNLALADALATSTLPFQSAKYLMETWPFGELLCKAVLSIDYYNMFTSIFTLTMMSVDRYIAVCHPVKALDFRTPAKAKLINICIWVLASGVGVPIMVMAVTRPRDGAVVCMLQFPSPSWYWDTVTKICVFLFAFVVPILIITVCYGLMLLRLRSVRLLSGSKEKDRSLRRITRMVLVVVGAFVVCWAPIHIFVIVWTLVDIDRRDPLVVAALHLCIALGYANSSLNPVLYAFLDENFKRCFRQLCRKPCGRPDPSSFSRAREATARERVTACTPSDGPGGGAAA

[3] = biological target: T3, Kappa-type opioid receptor (Homo sapiens, UniProt P41145); assay: Antagonist activity at human kappa opioid receptor expressed in CHO cells assessed as inhibition of U50,488-induced [35S]GTPgammaS binding after 60 mins by scintillation counting; type: functional, cell-based
T3 sequence (P41145 whole entry): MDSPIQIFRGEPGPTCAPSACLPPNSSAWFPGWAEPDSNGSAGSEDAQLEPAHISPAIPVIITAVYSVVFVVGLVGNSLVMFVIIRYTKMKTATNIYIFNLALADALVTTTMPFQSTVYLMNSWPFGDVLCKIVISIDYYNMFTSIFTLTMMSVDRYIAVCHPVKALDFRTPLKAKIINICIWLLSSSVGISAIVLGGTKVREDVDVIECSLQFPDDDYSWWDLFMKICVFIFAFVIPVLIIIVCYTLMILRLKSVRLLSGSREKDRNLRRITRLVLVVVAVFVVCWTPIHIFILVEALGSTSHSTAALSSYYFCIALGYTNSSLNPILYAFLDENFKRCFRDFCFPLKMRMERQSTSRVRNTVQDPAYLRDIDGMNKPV

[4] = biological target: T2, Delta-type opioid receptor; assay: Antagonist activity at human delta opioid receptor expressed in CHO cells assessed as inhibition of SNC80-induced [35S]GTPgammaS binding after 60 mins by scintillation counting; type: functional, cell-based
[5] = biological target: T3, Kappa-type opioid receptor; assay: Agonist activity at human kappa opioid receptor expressed in CHO cells assessed as [35S]GTPgammaS binding after 60 mins by scintillation counting; type: functional, cell-based
[6] = biological target: T2, Delta-type opioid receptor; assay: Agonist activity at human delta opioid receptor expressed in CHO cells assessed as [35S]GTPgammaS binding after 60 mins by scintillation counting; type: functional, cell-based
[7] = biological target: T3, Kappa-type opioid receptor; assay: Displacement of [3H]U69,593 from human kappa opioid receptor expressed in CHO cells after 60 mins by scintillation counting; type: cell-based
Mu-type opioid receptor [8] = biological target: T1, Mu-type opioid receptor; assay: Partial agonist activity at human mu opioid receptor expressed in CHO cells assessed as [35S]GTPgammaS binding after 60 mins by scintillation counting relative to untreated-control; type: functional, cell-based
Homo sapiens [9] = species on record: Homo sapiens; assay: Selectivity ratio of Ki for human delta opioid receptor to Ki for human mu opioid receptor
Homo sapiens [10] = species on record: Homo sapiens; assay: Selectivity ratio of Ki for human kappa opioid receptor to Ki for human mu opioid receptor
Mu-type opioid receptor [11] = biological target: T1, Mu-type opioid receptor; assay: Displacement of [3H]DAMGO from human mu opioid receptor expressed in CHO cells after 60 mins by scintillation counting; type: cell-based
Mu-type opioid receptor [12] = biological target: T1, Mu-type opioid receptor; assay: Partial agonist activity at human mu opioid receptor expressed in CHO cells assessed as [35S]GTPgammaS binding after 60 mins by scintillation counting; type: functional, cell-based
Mu-type opioid receptor [13] = biological target: T1, Mu-type opioid receptor; assay: Antagonist activity at human mu opioid receptor expressed in CHO cells assessed as inhibition of DAMGO-induced [35S]GTPgammaS binding after 60 mins by scintillation counting; type: functional, cell-based
[14] = biological target: T2, Delta-type opioid receptor; assay: Partial agonist activity at human delta opioid receptor expressed in CHO cells assessed as [35S]GTPgammaS binding after 60 mins by scintillation counting relative to untreated control; type: functional, cell-based
[15] = biological target: T2, Delta-type opioid receptor; assay: Partial agonist activity at human delta opioid receptor expressed in CHO cells assessed as [35S]GTPgammaS binding after 60 mins by scintillation counting; type: functional, cell-based
Mu-type opioid receptor [16] = biological target: T1, Mu-type opioid receptor; assay: Agonist activity at human mu opioid receptor expressed in CHO cells assessed as [35S]GTPgammaS binding after 60 mins by scintillation counting relative to untreated-control; type: functional, cell-based

T1 sequence (P35372 whole entry): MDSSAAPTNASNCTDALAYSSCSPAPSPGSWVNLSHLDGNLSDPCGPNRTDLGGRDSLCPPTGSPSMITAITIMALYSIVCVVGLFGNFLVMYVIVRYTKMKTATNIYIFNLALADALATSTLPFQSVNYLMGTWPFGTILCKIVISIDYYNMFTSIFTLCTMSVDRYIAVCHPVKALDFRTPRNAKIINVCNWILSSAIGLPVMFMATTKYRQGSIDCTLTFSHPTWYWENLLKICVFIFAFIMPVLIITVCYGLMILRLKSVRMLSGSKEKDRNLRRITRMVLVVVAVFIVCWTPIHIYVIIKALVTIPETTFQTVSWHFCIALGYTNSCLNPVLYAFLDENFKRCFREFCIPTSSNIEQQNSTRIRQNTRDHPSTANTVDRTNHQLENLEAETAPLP

With C[C@H]1[C@H]2Cc3ccc(C(=O)NCCc4ccc(-c5ccc(O)cc5)cc4)cc3[C@]1(C)CCN2CC1CC1 the Imax (Mu-type opioid receptor [1]) was 62%, the Ki [2] was 0.78 nM and the IC50 [3] was “Not Active”. For the same compound, the IC50 ([4]; cho) was “Not Active”, the EC50 [5] was 0.26 nM and the EC50 [6] was 0.31 nM. The Ki [7] was 0.36 nM and the Emax (Mu-type opioid receptor [8]) was 31%.

Compound CC1C2Cc3ccc(C(=O)NCCc4ccc(-c5ccc(OC(F)(F)F)cc5)cc4)cc3C1(C)CCN2CC1CC1 (racemic) has a Ratio Ki (Homo sapiens [9]) of 4, a Ki [2] of 6.6 nM and a Ratio Ki (Homo sapiens [10]) of 3. It also gave a Ki (Mu-type opioid receptor [11]) of 1.8 nM and a Ki [7] of 5.2 nM.

For CC1C2Cc3ccc(C(=O)NCCc4ccc(-c5ccc(OC(F)F)cc5)cc4)cc3C1(C)CCN2CC1CC1 (racemic), the Ratio Ki (Homo sapiens [9]) was 3, the Ki [2] was 0.8 nM and the Ratio Ki (Homo sapiens [10]) was 9. It also gave a Ki (Mu-type opioid receptor [11]) of 0.3 nM and a Ki [7] of 2.7 nM.

Compound CC1C2Cc3ccc(C(=O)NCCc4ccc(-c5cccc(O)c5)cc4)cc3C1(C)CCN2CC1CC1 (racemic) has a Ratio Ki (Homo sapiens [9]) of 57, a Ki [2] of 1.2 nM and a Ratio Ki (Homo sapiens [10]) of 62. It also gave a Ki (Mu-type opioid receptor [11]) of 0.021 nM and a Ki [7] of 1.3 nM.

CC1C2Cc3ccc(C(=O)NCCc4ccc(-c5ccccc5O)cc4)cc3C1(C)CCN2CC1CC1 (racemic) was tested, and the EC50 (Mu-type opioid receptor [12]) was 1.5 nM, the Imax (Mu-type opioid receptor [1]) was 67% and the Ki [2] was 0.24 nM. For the same compound, the Ki (Mu-type opioid receptor [11]) was 0.0056 nM, the IC50 [3] was “Not Active” and the IC50 ([4]; cho) was “Not Active”. For the same compound, the EC50 [5] was 0.086 nM, the IC50 (Mu-type opioid receptor [13]) was 64 nM and the EC50 [6] was 0.16 nM. The Ki [7] was 2.1 nM and the Emax (Mu-type opioid receptor [8]) was 48%.

In the case of COc1ccc(-c2ccc(CCNC(=O)c3ccc4c(c3)C3(C)CCN(CC5CC5)C(C4)C3C)cc2)cc1OC (racemic), the EC50 (Mu-type opioid receptor [12]) is reported as 1.6 nM, the Ratio Ki (Homo sapiens [9]) is reported as 211 and the Imax (Mu-type opioid receptor [1]) is reported as 70%. For the same compound, the Emax [14] was 73%, the Ki [2] was 1.5 nM and the Ratio Ki (Homo sapiens [10]) was 183. The Ki (Mu-type opioid receptor [11]) was 0.0071 nM, the IC50 [3] was “Not Active” and the IC50 ([4]; read-out: IC50) was 70 nM. The EC50 [5] was 3 nM, the IC50 (Mu-type opioid receptor [13]) was 29 nM and the EC50 [15] was 6.2 nM. It also gave a Ki [7] of 1.3 nM and an Emax (Mu-type opioid receptor [8]) of 32%.

CC1C2Cc3ccc(C(=O)NCCc4ccc(-c5ccc6c(c5)OCO6)cc4)cc3C1(C)CCN2CC1CC1 (racemic) was tested, and the IC50 [3] was “Not Active”, the IC50 ([4]; cho) was “Not Active” and the EC50 [5] was 0.34 nM. It also gave an EC50 [6] of 0.8 nM.

For COc1ccc(-c2ccc(CCNC(=O)c3ccc4c(c3)C3(C)CCN(CC5CC5)C(C4)C3C)cc2)cc1C (racemic), the Imax (Mu-type opioid receptor [1]) was 81%, the IC50 [3] was “Not Active” and the IC50 ([4]; cho) was “Not Active”. It also gave an EC50 [6] of 2.8 nM and an Emax (Mu-type opioid receptor [8]) of 21%.

COc1ccc2cc(CCNC(=O)c3ccc4c(c3)C3(C)CCN(CC5CC5)C(C4)C3C)ccc2c1 (racemic) gave an Emax (Mu-type opioid receptor [16]) of 6.6%, an Imax (Mu-type opioid receptor [1]) of 76% and a Ki [2] of 2.2 nM. For the same compound, the Ki (Mu-type opioid receptor [11]) was 0.064 nM, the IC50 [3] was “Not Active” and the IC50 ([4]; cho) was “Not Active”. For the same compound, the EC50 [5] was 1.3 nM, the IC50 (Mu-type opioid receptor [13]) was 45 nM and the EC50 [6] was 7.5 nM. For the same compound, the Ki [7] was 0.45 nM.

CC1C2Cc3ccc(C(=O)NCCc4ccc5ccccc5c4)cc3C1(C)CCN2CC1CC1 (racemic) showed a Ratio Ki (Homo sapiens [9]) of 5, a Ki [2] of 0.9 nM and a Ratio Ki (Homo sapiens [10]) of 1. It also gave a Ki (Mu-type opioid receptor [11]) of 0.18 nM and a Ki [7] of 0.2 nM.

With COc1ccc(-c2ccc(CCNC(=O)c3ccc4c(c3)C3(C)CCN(CC5CC5)C(C4)C3C)cc2)cc1 (racemic) the Ratio Ki (Homo sapiens [9]) was 2, the Ki [2] was 0.18 nM and the Ratio Ki (Homo sapiens [10]) was 18. The Ki (Mu-type opioid receptor [11]) was 0.084 nM and the Ki [7] was 1.5 nM.

In the case of COc1cccc(-c2ccc(CCNC(=O)c3ccc4c(c3)C3(C)CCN(CC5CC5)C(C4)C3C)cc2)c1 (racemic), the Ki [2] is reported as 1.3 nM, the IC50 [3] is reported as “Not Active” and the IC50 ([4]; cho) is reported as “Not Active”. For the same compound, the EC50 [5] was 3.1 nM, the EC50 [6] was 1.2 nM and the Ki [7] was 0.22 nM.

In the case of COc1ccccc1-c1ccc(CCNC(=O)c2ccc3c(c2)C2(C)CCN(CC4CC4)C(C3)C2C)cc1 (racemic), the Ratio Ki (Homo sapiens [9]) is reported as 7, the Ki [2] is reported as 0.84 nM and the Ratio Ki (Homo sapiens [10]) is reported as 3. The Ki (Mu-type opioid receptor [11]) was 0.12 nM and the Ki [7] was 0.38 nM.

In the case of CC(C)Oc1ccc(-c2ccc(CCNC(=O)c3ccc4c(c3)C3(C)CCN(CC5CC5)C(C4)C3C)cc2)cc1 (racemic), the EC50 (Mu-type opioid receptor [12]) is reported as 2.3 nM, the Imax (Mu-type opioid receptor [1]) is reported as 72% and the IC50 [3] is reported as “Not Active”. The IC50 ([4]; cho) was “Not Active”, the IC50 (Mu-type opioid receptor [13]) was 13 nM and the EC50 [6] was 18 nM. For the same compound, the Emax (Mu-type opioid receptor [8]) was 35%.

Compound CC1C2Cc3ccc(O)cc3C1(C)CCN2CC1CC1 (racemic) has a Ki [2] of 2 nM and a Ki [7] of 0.07 nM.
